The values below come from publication PMC5733478, “A Non-imaging High Throughput Approach to Chemical Library Screening at the Unmodified Adenosine-A3 Receptor in Living Cells” (Frontiers in Pharmacology, 2017).

Usually Kd stands for the equilibrium constant for the complex coming apart.

Read-outs that look alike come from different tables or passages of the source.

One assay deals with A3AR. The settings on record: ref Stoddart et al. ([2012]); cited from earlier work.
Assay [1] addresses T1, human A3AR (Homo sapiens, UniProt P0DMS8).
T1 construct: expressed in transfected cells
T1 sequence (P0DMS8 1-318): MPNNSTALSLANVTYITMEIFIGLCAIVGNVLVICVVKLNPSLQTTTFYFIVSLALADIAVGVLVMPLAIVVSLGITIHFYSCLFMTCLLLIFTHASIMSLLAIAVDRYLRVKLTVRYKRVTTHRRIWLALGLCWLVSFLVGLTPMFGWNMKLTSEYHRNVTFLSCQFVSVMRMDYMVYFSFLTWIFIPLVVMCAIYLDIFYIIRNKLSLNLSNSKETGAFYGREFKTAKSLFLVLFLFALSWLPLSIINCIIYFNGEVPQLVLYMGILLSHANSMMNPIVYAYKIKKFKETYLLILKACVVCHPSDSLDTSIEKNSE
Kind of assay: HTS (PHERAstar FS) fluorescent ligand competition binding in live CHO cells, 5 nM AV039 tracer. On the procedure:
(§1) CHO cells stably expressing the A3AR, A1AR, β1AR or β2AR were seeded into the central 60 wells (for high content confocal analysis) or every well (high throughput analysis) of a 96-well clear-bottomed, black-walled plate (Greiner BioOne) and grown to confluency. […] Cells were incubated for 1h at 37°C/5% CO2. Buffer was then removed from each well, cells washed once in HBSS and fresh HBSS added at room temperature. Plates were then immediately subjected to high content or HTS analysis as detailed below.
(§2) High throughput analysis was performed using a PHERAstar FS plate reader (BMG Technologies). […] Optimal focal height was determined automatically and total fluorescence intensity was assessed by taking 81 reads per well.
(§3) Competition binding curves were fitted to the following equation using GraphPad Prism 5 (GraphPad Software): […]
(§4) where [L] is the concentration and KD is the equilibrium dissociation constant of the fluorescent ligand.

A further assay addresses T2, β2AR (Homo sapiens, UniProt P07550).
T2 construct: expressed in transfected cells
Description: HTS (PHERAstar FS) fluorescent ligand competition binding in live CHO cells, 10 nM BODIPY-TMR-CGP tracer. The settings on record: for β2AR % Total binding at 10 μM: 10 μM compound, 10 nM BODIPY-TMR-CGP, mean ± SEM, n=3. On the procedure:
as §1, §2, §3, §4

Assay [2] concerns the target T1, human A3AR. Description: HTS (PHERAstar FS) fluorescent ligand competition binding in live CHO cells, 25 nM CA200645 tracer. The settings on record: for displacement of CA200645 binding at the A3AR in full inhibition curves: secondary screen of top ten hits, highest concentration 10 μM, affinity not determinable. On the procedure: as §1, §2, §3, §4
Assay [3] has as its target T1, human A3AR. Description: LOPAC library primary screen: single concentration (10 μM) inhibition of 25 nM CA200645 binding, PHERAstar FS.
The target in another assay is T3, human A1AR (Homo sapiens, UniProt P30542).
T3 construct: expressed in transfected cells
T3 sequence (P30542 1-326): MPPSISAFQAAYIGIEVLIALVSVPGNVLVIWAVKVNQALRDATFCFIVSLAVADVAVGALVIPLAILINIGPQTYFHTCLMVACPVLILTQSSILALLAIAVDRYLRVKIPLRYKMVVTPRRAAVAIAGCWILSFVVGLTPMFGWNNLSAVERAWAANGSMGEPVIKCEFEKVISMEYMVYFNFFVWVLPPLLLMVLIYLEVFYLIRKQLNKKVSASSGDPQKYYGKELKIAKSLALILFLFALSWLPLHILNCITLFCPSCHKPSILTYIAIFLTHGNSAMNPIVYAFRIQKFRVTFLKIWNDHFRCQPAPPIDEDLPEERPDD
Description: HTS (PHERAstar FS) fluorescent ligand competition binding in live CHO cells, 25 nM CA200645 tracer. The settings on record: secondary screen of LOPAC hits; for Ki: 25 nM CA200645, mean ± SEM, n=3, read-out: A1AR pKi (selected LOPAC hits) (converted). On the procedure:
as §1, §2, §3, §4

For a further assay, the target named is A1AR. The settings on record: cited from earlier work.
[4] abbreviates: secondary screen of LOPAC hits, full inhibition curves, 25 nM CA200645, mean ± SEM, n=3, read-out: A3AR pKi (selected LOPAC hits) (converted).
The mark [5] stands for this setting: % of control wells (1% DMSO and 25 nM CA200645), compounds at 10 µM, whole live cells expressing the A3AR, mean ± SD, three experiments in duplicate.

T2 sequence (P07550 whole entry): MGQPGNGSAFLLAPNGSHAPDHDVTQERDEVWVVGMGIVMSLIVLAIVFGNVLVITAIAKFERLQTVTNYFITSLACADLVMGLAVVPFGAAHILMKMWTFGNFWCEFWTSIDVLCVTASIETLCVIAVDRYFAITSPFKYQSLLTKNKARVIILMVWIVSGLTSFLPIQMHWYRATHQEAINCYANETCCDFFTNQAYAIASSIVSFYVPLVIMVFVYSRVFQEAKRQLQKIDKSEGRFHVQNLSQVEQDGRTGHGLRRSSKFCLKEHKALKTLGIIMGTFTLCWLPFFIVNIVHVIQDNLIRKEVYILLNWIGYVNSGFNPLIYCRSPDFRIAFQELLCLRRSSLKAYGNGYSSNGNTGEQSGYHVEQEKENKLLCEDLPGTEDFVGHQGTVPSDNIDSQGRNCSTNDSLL

Consider `Nc1nc2ccc(Cl)cc2c2nc(-c3ccco3)nn12` [CGS15943], for which, on A3AR, the “Literature values (A3AR)” value is 8.18. The Ki on human A3AR [1] and on human A3AR [2] was 12.3 nM throughout. Also, the “β2AR % Total binding at 10 μM” value on β2AR worked out at 115.4 ± 5.0%. The “effect on binding of BODIPY-TMR-CGP at the β2AR” value on β2AR (secondary screen of LOPAC hits) was “no effect”. The “% Total CA200645 binding” value on human A3AR [3] was found to be 30.0 ± 3.0%. `Oc1ccc(/C=C/c2ccc(/C=C/c3ccc(O)cc3)c(Br)c2)cc1` [K114]: at β2AR, the “β2AR % Total binding at 10 μM” value is 95.8 ± 5.5%. Besides, the Ki on human A1AR was 275 nM; at human A3AR [2] (setting [4]) it was 372 nM. Also, at human A3AR [3] (setting [5]), the “% 25 nM CA200645 binding” value stood at 24.6 ± 5.8%.

On to `O=C(Cc1ccccc1)Nc1nc2ccc(Cl)cc2c2nc(-c3ccco3)nn12` [MRS1220], for which the “Literature values (A1AR)” value on A1AR (A1AR, ref Stoddart et al. ([2012])) is given as 7.14. For `Cn1c(=O)c(-c2c(Cl)cccc2Cl)cc2cnc(Nc3ccc(N4CCOCC4)cc3)nc21` [PD173952, reference compound], on human A3AR [2], the “displacement of CA200645 binding at the A3AR in full inhibition curves” value (“displacement … in full inhibition curves” below) is “only displaced the binding of CA200645 at the highest concentration tested”. The “% 25 nM CA200645 binding” value on human A3AR [3] came out at 25.6 ± 5.3%. With `CC1=C(/C=C/C(C)=C/C=C/C(C)=C/C(=O)Nc2ccc(O)cc2)C(C)(C)CCC1` [Retinoic acid p-hydroxyanilide], the “β2AR % Total binding at 10 μM” value at β2AR was 102.7 ± 5.1%. Moreover, the Ki was 912 nM at human A1AR and 741 nM on human A3AR [2] (setting [4]). Moreover, the “% 25 nM CA200645 binding” value at human A3AR [3] (setting [5]) was 26.5 ± 2.0%. For `CN(C)S(=O)(=O)c1ccc2c(c1)/C(=C/c1cc3c([nH]1)CCCC3)C(=O)N2` [SU 6656], the “β2AR % Total binding at 10 μM” value on β2AR is reported as 128.4 ± 18.4%. In addition, on human A1AR, the “inhibition of CA200645 binding at the A1AR” value is “only inhibited binding at the highest concentration tested”. In addition, the Ki on human A3AR [2] (setting [4]) is 676 nM. On human A3AR [3], the “% 25 nM CA200645 binding” value is given as 17.3 ± 1.8%. As for `Nc1nc(NCCc2ccc(O)cc2)nc2nc(-c3ccco3)nn12` [ZM241385], the “Literature values (A3AR)” value on A3AR was 6.74. Further, the Ki at human A3AR [1] (CHO cells expressing A3AR, 5 nM AV039, PHERAstar HTS assay, mean ± SEM, read-out: pKi A3AR AV039 (converted)) was 479 nM; at human A3AR [2] (CHO cells expressing A3AR, 25 nM CA200645, PHERAstar HTS assay, mean ± SEM, read-out: pKi A3AR CA200645 (converted)) it was 234 nM.

In the case of `O=C1Cc2c([nH]c3ccc(Br)cc23)-c2ccccc2N1` [kenpaullone, reference compound], at human A3AR [2], the “displacement … in full inhibition curves” value was “only displaced the binding of CA200645 at the highest concentration tested”. In addition, on human A3AR [3], the “% 25 nM CA200645 binding” value worked out at 30.6 ± 6.6%. Regarding `Cl.Cl.Oc1ccc2c3c1O[C@H]1c4[nH]c5c(c4C[C@@]4(O)[C@@H](C2)N(CC2CC2)CC[C@]314)C[C@@]1(O)[C@H]2Cc3ccc(O)c4c3[C@@]1(CCN2CC1CC1)[C@H]5O4` [nor-Binaltorphimine dihydrochloride], at human A3AR [3], the “% 25 nM CA200645 binding” value is recorded as 96.9 ± 14.7%. Regarding `Cl.Nc1cc(Cl)c(N=C2NCCN2)c(Cl)c1` [p-Aminoclonidine hydrochloride], the “% 25 nM CA200645 binding” value at human A3AR [3] was determined as 89.0 ± 23.3%. As for `O=C1C=CC(=O)C=C1` [p-Benzoquinone], at human A3AR [3], the “% 25 nM CA200645 binding” value is reported as 85.9 ± 13.7%. Still for that read-out and setting: under `N[C@@H](Cc1ccc(F)cc1)C(=O)O` [p-Fluoro-L-phenylalanine] stands 98.5 ± 8.4%; under `Cl.Clc1cc(I)cc(Cl)c1NC1=NCCN1` [p-Iodoclonidine hydrochloride], 77.2 ± 42.2%; under `COc1ccccc1N1CCN(CCN(C(=O)c2ccc(F)cc2)c2ccccn2)CC1.Cl.Cl` [p-MPPF dihydrochloride], 117.8 ± 19.4%. Turning to `O=c1c(O)c(-c2ccc(O)c(O)c2)oc2cc(O)cc(O)c12` [quercetin], the “displacement … in full inhibition curves” value on human A3AR [2] is “only displaced the binding of CA200645 at the highest concentration tested”. In the case of `CC(=O)c1c(O)c(C)c(O)c(Cc2c(O)c3c(c(C(=O)/C=C/c4ccccc4)c2O)OC(C)(C)C=C3)c1O` [rottlerin, reference compound], the “displacement … in full inhibition curves” value at human A3AR [2] is on record as “only displaced the binding of CA200645 at the highest concentration tested”. Moreover, at human A3AR [3], the “% 25 nM CA200645 binding” value came out at 22.8 ± 1.4%. For the molecule (+)-Catechin Hydrate, the “% 25 nM CA200645 binding” value on human A3AR [3] is given as 94.3 ± 10.9%. The same measure, in the same setting: under (±)-Ibuprofen stands 91.4 ± 12.3%. CA200645: on A1AR (ref Stoddart et al., [2012], read-out: KD of fluorescent ligand at the A1AR), the Kd is 11 nM. Take CCT007093: the “% 25 nM CA200645 binding” value at human A3AR [3] worked out at 68.4 ± 3.4%. On the same count and under the same terms, then L-Methionine sulfoximine, with 107.1 ± 5.4%; and LY-310,762 hydrochloride, with 93.0 ± 7.5%; and LY-367,265, with 64.8 ± 25.8%. Same read-out and setting: then MDL 26,630 trihydrochloride, with 124.5 ± 16.5%; and PD-184161, with 50.8 ± 14.3%. Same read-out and setting: under Picrotoxin stands 96.8 ± 4.1%. In the case of R(-)-Me5, at human A3AR [3], the “% 25 nM CA200645 binding” value came out at 100.1 ± 8.0%. For Ro 8-4304, the “% 25 nM CA200645 binding” value at human A3AR [3] is listed as 107.2 ± 11.5%. The same measure, in the same setting: then Ro 20-1724, with 108.8 ± 2.1%. On the same count and under the same terms, under Ro 41-0960 stands 98.8 ± 6.8%. Regarding Ro 90-7501, the “% 25 nM CA200645 binding” value at human A3AR [3] is given as 72.1 ± 6.0%. Take S(-)-UH-301 hydrochloride: the “% 25 nM CA200645 binding” value on human A3AR [3] worked out at 106.6 ± 12.1%. For the molecule S-Nitroso-N-acetylpenicillamine, the “% 25 nM CA200645 binding” value at human A3AR [3] came out at 127.5 ± 10.1%.

For the molecule trans-(±)-ACPD, the “% 25 nM CA200645 binding” value on human A3AR [3] was 83.6 ± 13.4%.
